A word on the IC50: it is the concentration that gives 50% inhibition.

Structures are written as SMILES. Bridge positions count the residues as written; N and C are the ends. Square brackets hold non-standard residues; d marks the D form. Peptide text beside a SMILES is read from it. * marks the point of attachment. ξ: configuration not given here. Phe(4-COOH) = N[C@@H](Cc1ccc(C(=O)O)cc1)C(=O)O; Bip = N[C@@H](Cc1ccc(-c2ccccc2)cc1)C(=O)O; Phe(3-Me) = Cc1cccc(C[C@H](N)C(=O)O)c1; ξBip = NC(Cc1ccc(-c2ccccc2)cc1)C(=O)O; NH(CH2)12COOH = O=C(O)CCCCCCCCCCCCN*; Val(3-OH) = CC(C)(O)[C@H](N)C(=O)O; hArg = N=C(N)NCCCC[C@H](N)C(=O)O; 4Pal = N[C@@H](Cc1ccncc1)C(=O)O; Cha = N[C@@H](CC1CCCCC1)C(=O)O; Cit = NC(=O)NCCC[C@H](N)C(=O)O; Thr(3ξ) = CC(O)[C@H](N)C(=O)O; Tle = CC(C)(C)[C@H](N)C(=O)O; Carboxymethyl = O=C(O)C*; NMeA = CN[C@@H](C)C(=O)O; Nle = CCCC[C@H](N)C(=O)O; Orn = NCCC[C@H](N)C(=O)O; Pra = C#CC[C@H](N)C(=O)O; Aun = NCCCCCCCCCCC(=O)O; Dab = NCC[C@H](N)C(=O)O; Dap = NC[C@H](N)C(=O)O; ξD = NC(CC(=O)O)C(=O)O; AEEA = NCCOCCOCC(=O)O

The target of the assay is T1, PD-1/PD-L1 interaction (PE-labeled human PD-L1-Ig binding to Jurkat cell line over-expressing human PD-1) (Homo sapiens, UniProt Q15116).
T1 construct: expressed in transfected cells; host or cells: Jurkat
T1 sequence (Q15116 25-288): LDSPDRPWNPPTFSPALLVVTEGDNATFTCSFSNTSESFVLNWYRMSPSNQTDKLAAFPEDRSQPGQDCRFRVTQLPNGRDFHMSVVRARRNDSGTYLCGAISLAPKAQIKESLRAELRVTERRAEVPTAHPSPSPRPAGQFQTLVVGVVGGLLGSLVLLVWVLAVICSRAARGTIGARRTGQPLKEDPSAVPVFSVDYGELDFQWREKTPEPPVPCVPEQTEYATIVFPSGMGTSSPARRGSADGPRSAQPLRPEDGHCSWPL
In words: Jurkat-PD-1 Cell Binding High-Content Screening Assay (CBA). Type of assay: cell-based. Particulars: Jurkat cell line over-expressing human PD-1; PE-labeled PD-L1-Ig 20 nM final; read-out: Jurkat hPD1-PDL1 IC50. The gist of the method:
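First, compound is added to PD-1-expressing Jurkat cells in serum-containing DMEM and left 2 h at 37° C. Next, PE-conjugated PD-L1-Ig is introduced at 20 nM final concentration for 1 hour. Finally, cells are fixed in 4% paraformaldehyde with Hoechst 33342, washed and imaged.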
For the compound `Cc1cccc(C[C@@H]2NC(=O)[C@H](CC(=O)O)NC(=O)[C@H](Cc3ccc(OCC(=O)O)cc3)NC(=O)[C@H](CCN)NC(=O)CSC[C@@H](C(=O)N[C@@H](CCN)C(=O)NCCOCCOCC(=O)NCCCCCCCCCCC(=O)O)NC(=O)[C@H](CCC(=O)O)NC(=O)[C@H](C(C)O)NC(=O)[C@H](CC3CCCCC3)NC(=O)[C@H](CCN)NC(=O)[C@@H](CC(C)C)NC(=O)[C@H](CCCN)NC(=O)[C@H](Cc3ccc(OCC(=O)O)cc3)NC(=O)[C@H](Cc3ccc(-c4ccccc4)cc3)NC(=O)[C@H](Cc3ccc(OCC(=O)O)cc3)NC2=O)c1` (stereo partly drawn) [Compound 3797] ({CH2CO}-[Dab]Y(Carboxymethyl)D[Phe(3-Me)]Y(Carboxymethyl)[Bip]Y(Carboxymethyl)[Orn][dL][Dab][Cha][Thr(3ξ)]EC[Dab][AEEA][Aun]-OH; thioether N-14), the IC50 was 2.1 nM.

As to `Cc1cccc(C[C@@H]2NC(=O)[C@H](CC(=O)O)NC(=O)[C@H](Cc3ccc(OCC(=O)O)cc3)NC(=O)[C@H](CN)NC(=O)CSC[C@@H](C(=O)N[C@@H](CCN)C(=O)NCCCCCCCCCCC(=O)O)NC(=O)[C@H]([C@@H](C)O)NC(=O)[C@H](C(C)(C)C)NC(=O)[C@H](CC3CCCCC3)NC(=O)[C@H](CCN)NC(=O)[C@@H](CC(C)C)NC(=O)[C@H](CCCN)NC(=O)[C@H](CCCNC(N)=O)NC(=O)[C@H](Cc3ccc(-c4ccccc4)cc3)NC(=O)[C@H](C(C)C)NC2=O)c1` [Compound 2840] ({CH2CO}-[Dap]Y(Carboxymethyl)D[Phe(3-Me)]V[Bip][Cit][Orn][dL][Dab][Cha][Tle]TC[Dab][Aun]-OH; thioether N-14), the IC50 came out at 18.1 nM.

On to `Cc1cccc(C[C@@H]2NC(=O)[C@H](CC(=O)O)NC(=O)[C@H](Cc3ccc(OCC(=O)O)cc3)NC(=O)[C@H](CN)NC(=O)CSC[C@@H](C(=O)NCCOCCOCC(=O)N[C@@H](CCCCN)C(=O)NCCCCCCCCCCC(=O)O)NC(=O)[C@H](CCCN)NC(=O)[C@H](C(C)C)NC(=O)[C@H](CC3CCCCC3)NC(=O)[C@H](CCN)NC(=O)[C@@H](CC(C)C)NC(=O)[C@H](CCCN)NC(=O)[C@H](C(C)C)NC(=O)[C@H](Cc3ccc(-c4ccccc4)cc3)NC(=O)[C@H](C(C)C)NC2=O)c1` [Compound 2597] ({CH2CO}-[Dap]Y(Carboxymethyl)D[Phe(3-Me)]V[Bip]V[Orn][dL][Dab][Cha]V[Orn]C[AEEA]K[Aun]-OH; thioether N-14), for which the IC50 came out at 8.9 nM.

On to `Cc1cccc(C[C@@H]2NC(=O)[C@H](CC(=O)O)NC(=O)[C@H](Cc3ccc(OCC(=O)O)cc3)NC(=O)[C@H](CCCNC(=N)N)NC(=O)CSC[C@@H](C(=O)N(C)[C@@H](C)C(=O)NCCOCCOCC(=O)NCCCCCCCCCCC(=O)O)NC(=O)[C@H](CCCN)NC(=O)[C@H](C(C)C)NC(=O)[C@H](CC3CCCCC3)NC(=O)[C@H](CCN)NC(=O)[C@@H](CC(C)C)NC(=O)[C@H](CCN)NC(=O)[C@H](C(C)C)NC(=O)[C@H](Cc3ccc(-c4ccccc4)cc3)NC(=O)[C@H](C(C)C)NC2=O)c1` [Compound 3319] ({CH2CO}-RY(Carboxymethyl)D[Phe(3-Me)]V[Bip]V[Dab][dL][Dab][Cha]V[Orn]C[NMeA][AEEA][Aun]-OH; thioether N-14), for which the IC50 stood at 53.4 nM.

With `C#CC[C@H](NC(=O)COCCOCCNC(=O)[C@H](CCCN)NC(=O)[C@@H]1CSCC(=O)N[C@@H](Cc2ccncc2)C(=O)N[C@@H](Cc2ccc(OCC(=O)O)cc2)C(=O)N[C@@H](CC(=O)O)C(=O)N[C@@H](Cc2c[nH]c3ccccc23)C(=O)N[C@@H](C(C)C)C(=O)N[C@@H](Cc2ccc(-c3ccccc3)cc2)C(=O)N[C@@H]([C@@H](C)CC)C(=O)N[C@@H](CCCN)C(=O)N[C@H](CC(C)C)C(=O)N[C@@H](CCN)C(=O)N[C@@H](CC(C)C)C(=O)N[C@@H](C(C)C)C(=O)N[C@@H]([C@@H](C)O)C(=O)N1)C(=O)N[C@@H](CCCCN)C(=O)NCCCCCCCCCCC(=O)O` [Compound 1202] ({CH2CO}-[4Pal]Y(Carboxymethyl)DWV[Bip]I[Orn][dL][Dab]LVTC[Orn][AEEA][Pra]K[Aun]-OH; thioether N-14), the IC50 is 16.7 nM.

With `CCCC[C@@H]1NC(=O)CSC[C@@H](C(=O)N[C@@H](CCN)C(=O)NCCOCCOCC(=O)NCCOCCOCC(=O)NCCCCCCCCCCCCC(=O)O)NC(=O)[C@H](CO)NC(=O)[C@H](C(C)(C)O)NC(=O)[C@H](CC2CCCCC2)NC(=O)[C@H](CCN)NC(=O)[C@@H](CC(C)C)NC(=O)[C@H](CCCN)NC(=O)[C@H](Cc2ccc(C(=O)O)cc2)NC(=O)[C@H](Cc2ccc(-c3ccccc3)cc2)NC(=O)[C@H](Cc2ccc(C(=O)O)cc2)NC(=O)[C@H](Cc2cccc(C)c2)NC(=O)[C@H](CC(=O)O)NC(=O)[C@H](Cc2ccc(OCC(=O)O)cc2)NC1=O` [Compound 2891] ({CH2CO}-[Nle]Y(Carboxymethyl)D[Phe(3-Me)][Phe(4-COOH)][Bip][Phe(4-COOH)][Orn][dL][Dab][Cha][Val(3-OH)]SC[Dab][AEEA][AEEA]-{NH(CH2)12COOH}; thioether N-14), the IC50 amounted to 2.6 nM.

Take `CC(C)C[C@H]1NC(=O)[C@H](CCCN)NC(=O)[C@H](C(C)C)NC(=O)[C@H](Cc2ccc(-c3ccccc3)cc2)NC(=O)[C@H](C(C)C)NC(=O)[C@H](Cc2c[nH]c3ccccc23)NC(=O)[C@H](CC(=O)O)NC(=O)[C@H](Cc2ccc(OCC(=O)O)cc2)NC(=O)[C@H](CN)NC(=O)CSC[C@@H](C(=O)N[C@@H](C)C(=O)N[C@@H](CCCCN)C(=O)NCCCCCCCCCCC(=O)O)NC(=O)[C@H]([C@@H](C)O)NC(=O)[C@H](C(C)C)NC(=O)[C@H](CC2CCCCC2)NC(=O)[C@H](Cc2cnc[nH]2)NC1=O` [Compound 1090] ({CH2CO}-[Dap]Y(Carboxymethyl)DWV[Bip]V[Orn][dL]H[Cha]VTCAK[Aun]-OH; thioether N-14): the IC50 turned out to be 38.9 nM.

Consider `Cc1cccc(C[C@@H]2NC(=O)[C@H](CC(=O)O)NC(=O)[C@H](Cc3ccc(OCC(=O)O)cc3)NC(=O)[C@H](CCCCNC(=N)N)NC(=O)CSC[C@@H](C(=O)N[C@@H](CCN)C(=O)NCCCCCCCCCCC(=O)O)NC(=O)[C@H](CCCN)NC(=O)[C@H](C(C)C)NC(=O)[C@H](CC3CCCCC3)NC(=O)[C@H](CCN)NC(=O)[C@@H](CC(C)C)NC(=O)[C@H](CCCN)NC(=O)[C@H](C(C)C)NC(=O)[C@H](Cc3ccc(-c4ccccc4)cc3)NC(=O)[C@H](C(C)C)NC2=O)c1` [Compound 3259] ({CH2CO}-[hArg]Y(Carboxymethyl)D[Phe(3-Me)]V[Bip]V[Orn][dL][Dab][Cha]V[Orn]C[Dab][Aun]-OH; thioether N-14), for which the IC50 was determined as 10.9 nM.

Consider `CC(C)C[C@H]1NC(=O)[C@H](CCCN)NC(=O)[C@H](Cc2ccc(O)cc2)NC(=O)[C@H](Cc2ccc(-c3ccccc3)cc2)NC(=O)[C@H](Cc2ccc(O)cc2)NC(=O)[C@H](Cc2c[nH]c3ccccc23)NC(=O)[C@H](CC(=O)O)NC(=O)[C@H](Cc2ccc(OCC(=O)O)cc2)NC(=O)[C@H](C(C)O)NC(=O)CSC[C@@H](C(=O)N[C@@H](CCN)C(=O)NCCCCCCCCCCC(=O)O)NC(=O)[C@H](CN)NC(=O)[C@H](C(C)O)NC(=O)[C@H](CC2CCCCC2)NC(=O)[C@H](Cc2cnc[nH]2)NC1=O` (stereo partly drawn) [Compound 3695] ({CH2CO}-[Thr(3ξ)]Y(Carboxymethyl)DWY[Bip]Y[Orn][dL]H[Cha][Thr(3ξ)][Dap]C[Dab][Aun]-OH; thioether N-14), for which the IC50 came to 629 nM.

In the case of `CC(C)C[C@H]1NC(=O)[C@H](CCCN)NC(=O)[C@H](C(C)C)NC(=O)[C@H](Cc2ccc(-c3ccccc3)cc2)NC(=O)[C@H](C(C)C)NC(=O)[C@H](Cc2c[nH]c3ccccc23)NC(=O)[C@H](CC(=O)O)NC(=O)[C@H](Cc2ccc(OCC(=O)O)cc2)NC(=O)[C@H](CCCNC(=N)N)NC(=O)CSC[C@@H](C(=O)NCC(=O)NCCOCCOCC(=O)N[C@@H](CCCN)C(=O)NCCCCCCCCCCC(=O)O)NC(=O)[C@H](CN)NC(=O)[C@H](C(C)C)NC(=O)[C@H](CC2CCCCC2)NC(=O)[C@H](CCN)NC1=O` [Compound 3238] ({CH2CO}-RY(Carboxymethyl)DWV[Bip]V[Orn][dL][Dab][Cha]V[Dap]CG[AEEA][Orn][Aun]-OH; thioether N-14), the IC50 was determined as 11.7 nM.

Consider `Cc1cccc(C[C@@H]2NC(=O)[C@H](CC(=O)O)NC(=O)[C@H](Cc3ccc(OCC(=O)O)cc3)NC(=O)[C@H](CCCCN)NC(=O)CSC[C@@H](C(=O)N[C@@H](CCN)C(=O)NCCCCCCCCCCC(=O)O)NC(=O)[C@H](CO)NC(=O)[C@H](C(C)(C)O)NC(=O)[C@H](CC3CCCCC3)NC(=O)[C@H](CCN)NC(=O)[C@@H](CC(C)C)NC(=O)[C@H](CCCN)NC(=O)[C@H](Cc3ccc(OCC(=O)O)cc3)NC(=O)[C@H](Cc3ccc(-c4ccccc4)cc3)NC(=O)[C@H](Cc3ccc(OCC(=O)O)cc3)NC2=O)c1` [Compound 2238] ({CH2CO}-KY(Carboxymethyl)D[Phe(3-Me)]Y(Carboxymethyl)[Bip]Y(Carboxymethyl)[Orn][dL][Dab][Cha][Val(3-OH)]SC[Dab][Aun]-OH; thioether N-14), for which the IC50 is 11.2 nM.

As to `Cc1cccc(C[C@@H]2NC(=O)C(CC(=O)O)NC(=O)[C@H](Cc3ccc(OCC(=O)O)cc3)NC(=O)[C@H](CN)NC(=O)CSC[C@@H](C(=O)N[C@@H](Cc3cnc[nH]3)C(=O)NCCCCCCCCCCC(=O)O)NC(=O)[C@H]([C@@H](C)O)NC(=O)[C@H](C(C)C)NC(=O)[C@H](CC3CCCCC3)NC(=O)[C@H](CCN)NC(=O)[C@@H](CC(C)C)NC(=O)[C@H](CCCN)NC(=O)[C@H](CCCNC(N)=O)NC(=O)C(Cc3ccc(-c4ccccc4)cc3)NC(=O)[C@H](C(C)C)NC2=O)c1` (stereo partly drawn) [Compound 1175] ({CH2CO}-[Dap]Y(Carboxymethyl)[ξD][Phe(3-Me)]V[ξBip][Cit][Orn][dL][Dab][Cha]VTCH[Aun]-OH; thioether N-14), the IC50 worked out at 19.9 nM.
